Test results as given in ChEMBL document CHEMBL1125524, “Adenosine A1 antagonists. 2. Structure-activity relationships on diuretic activities and protective effects against acute renal failure” (J Med Chem, 1992).

What was measured:
Rattus norvegicus [1] = experiment: Effect on urinary excretion potassium and sodium after oral administration of 0.4 mg/kg to rats(potassium and sodium excretion in control rat is 0.267+/-0.044); assay type: functional, Urine
Rattus norvegicus [2] = experiment: Effect on urinary excretion potassium and sodium after oral administration of 1.6 mg/kg to rats(potassium and sodium excretion in control rat is 0.169+/-0.012); assay type: functional, Urine
Rattus norvegicus [3] = experiment: Serum creatinine concentration measured after intraperitoneal administration of 0.1 mg/kg of compound to rats(vehicle 3.62+/-0.23); assay type: functional
Rattus norvegicus [4] = experiment: Percent inhibition of Urea nitrogen by the compound given as ratio of UN value in treated to vehicle treated ones after intraperitoneal administration of 1 mg/kg of compound to rats(vehicle 151.5+/-7.4); assay type: functional; conditions: ip
Adenosine A2 receptor = Adenosine A2 receptor (Rattus norvegicus, UniProt P29276+P30543)
Rattus norvegicus [5] = experiment: Serum creatinine concentration measured after intraperitoneal administration of 1 mg/kg of compound to rats(vehicle 4.82+/-0.17); assay type: functional
Rattus norvegicus [6] = experiment: Ratio of sodium ion/potassium ion concentration in treated rats to that in control rats, at a peroral dose of 0.4 mg/Kg; assay type: functional
Rattus norvegicus [7] = experiment: Ratio of urinary excretion value (Na+ concentration) in treated rats to that in control rats, at a peroral dose of 0.4 mg/Kg; assay type: functional, Urine
Rattus norvegicus [8] = experiment: Ratio of urinary excretion value (Na+ concentration) in treated rats to that in control rats, at a peroral dose of 1.6 mg/Kg; assay type: functional, Urine
Rattus norvegicus [9] = experiment: Urea nitrogen concentration measured after intraperitoneal administration of 1 mg/kg of compound to rats(vehicle 151.5+/-7.4); assay type: functional
Rattus norvegicus [10] = experiment: Percent inhibition of Urea nitrogen by the compound given as ratio of UN value in treated to vehicle treated ones after intraperitoneal administration of 0.1 mg/kg of compound to rats(vehicle 141.3+/-8.3); assay type: functional; conditions: ip
Rattus norvegicus [11] = experiment: Percent inhibition of serum creatinine by the compound given as ratio of Cr value in treated to vehicle treated ones after intraperitoneal administration of 0.01 mg/kg of compound to rats(vehicle 4.50+/-0.24); assay type: functional; conditions: ip
Rattus norvegicus [12] = experiment: Oral diuretic activity was measured after oral administration of 0.4 mg/kg to rats(control volume is 1.72+/-0.31); assay type: functional, Urine
Rattus norvegicus [13] = experiment: Ratio of urinary excretion value (urinary volume) in treated rats to that in control rats, at a peroral dose of 1.6 mg/Kg; assay type: functional, Urine
Rattus norvegicus [14] = experiment: Percent inhibition of Urea nitrogen by the compound given as ratio of UN value in treated to vehicle treated ones after intraperitoneal administration of 0.01 mg/kg of compound to rats(vehicle 130.6+/-4.1); assay type: functional; conditions: ip
Rattus norvegicus [15] = experiment: Percent inhibition of serum creatinine by the compound given as ratio of Cr value in treated to vehicle treated ones after intraperitoneal administration of 1 mg/kg of compound to rats(vehicle 4.82+/-0.17); assay type: functional; conditions: ip
Rattus norvegicus [16] = experiment: Ratio of sodium ion/potassium ion concentration in treated rats to that in control rats, at a peroral dose of 1.6 mg/Kg; assay type: functional
Rattus norvegicus [17] = experiment: Urea nitrogen concentration measured after intraperitoneal administration of 0.1 mg/kg of compound to rats(vehicle 141.3+/-8.3); assay type: functional
Rattus norvegicus [18] = experiment: Serum creatinine concentration measured after intraperitoneal administration of 0.01 mg/kg of compound to rats(vehicle 4.50+/-0.24); assay type: functional
Rattus norvegicus [19] = experiment: Percent inhibition of serum creatinine by the compound given as ratio of Cr value in treated to vehicle treated ones after intraperitoneal administration of 0.1 mg/kg of compound to rats(vehicle 3.62+/-0.23); assay type: functional; conditions: ip
Rattus norvegicus [20] = experiment: Oral diuretic activity was measured after oral administration of 1.6 mg/kg to rats(control volume is 0.97+/-0.05); assay type: functional, Urine
Rattus norvegicus [21] = experiment: Urea nitrogen concentration measured after intraperitoneal administration of 0.01 mg/kg of compound to rats(vehicle 130.6+/-4.1); assay type: functional
Rattus norvegicus [22] = experiment: Ratio of urinary excretion value (urinary volume) in treated rats to that in control rats, at a peroral dose of 0.4 mg/Kg; assay type: functional, Urine
Rattus norvegicus [23] = species on record: Rattus norvegicus; experiment: animal or person; conditions: ip, read-out: Inhibition, dose 1 mg/kg, route intraperitoneal
Rattus norvegicus [24] = experiment: Ratio of urinary excretion value (Na+ concentration) in treated rats to that in control rats, at a peroral dose of 25 mg/Kg; assay type: functional, Urine
Rattus norvegicus [25] = experiment: Effect on urinary excretion potassium and sodium after oral administration of 1.6 mg/kg to rats(potassium and sodium excretion in control rat is 0.105+/-0.002); assay type: functional, Urine
Adenosine receptor A1 = molecular target: T1, Adenosine receptor A1 (Cavia porcellus, UniProt P47745)
T1 sequence (P47745 whole entry): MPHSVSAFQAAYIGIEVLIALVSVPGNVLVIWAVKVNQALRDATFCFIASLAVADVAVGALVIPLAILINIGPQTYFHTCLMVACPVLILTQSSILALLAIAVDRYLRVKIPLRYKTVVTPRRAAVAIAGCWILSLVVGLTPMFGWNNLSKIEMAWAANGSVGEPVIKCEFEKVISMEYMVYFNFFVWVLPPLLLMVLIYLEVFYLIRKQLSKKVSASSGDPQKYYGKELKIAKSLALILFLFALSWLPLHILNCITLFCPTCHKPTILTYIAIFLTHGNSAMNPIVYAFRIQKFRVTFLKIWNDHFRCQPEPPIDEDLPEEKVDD
Description: Binding affinity against adenosine A1 receptor in guinea pig forebrain membranes using N6-[3H]cyclohexyladenosine as radioligand

Rattus norvegicus [26] = experiment: Effect on urinary excretion potassium and sodium after oral administration of 25 mg/kg to rats(potassium and sodium excretion in control rat is 0.180+/-0.024); assay type: functional, Urine
Rattus norvegicus [27] = experiment: Oral diuretic activity was measured after oral administration of 1.6 mg/kg to rats(control volume is 0.79+/-0.12); assay type: functional, Urine
Rattus norvegicus [28] = experiment: Urea nitrogen concentration measured after intraperitoneal administration of 1 mg/kg of compound to rats(vehicle 195.8+/-14.4); assay type: functional; conditions: 1 mg/kg
Rattus norvegicus [29] = experiment: Oral diuretic activity was measured after oral administration of 25 mg/kg to rats(control volume is 1.00+/-0.09); assay type: functional, Urine
Rattus norvegicus [30] = experiment: Percent inhibition of Urea nitrogen by the compound given as ratio of UN value in treated to vehicle treated ones after intraperitoneal administration of 1 mg/kg of compound to rats(vehicle 195.8+/-14.4); assay type: functional; conditions: Rattus norvegicus, ip
Rattus norvegicus [31] = experiment: Ratio of urinary excretion value (urinary volume) in treated rats to that in control rats, at a peroral dose of 25 mg/Kg; assay type: functional, Urine
Rattus norvegicus [32] = experiment: Serum creatinine concentration measured after intraperitoneal administration of 1 mg/kg of compound to rats(vehicle 5.07+/-0.33); assay type: functional; conditions: 1 mg/kg
Rattus norvegicus [33] = experiment: Ratio of sodium ion/potassium ion concentration in treated rats to that in control rats, at a peroral dose of 25 mg/Kg; assay type: functional

`CCn1c(=O)c2nc(C34CC5CC(CC3C5)C4)[nH]c2n(CC)c1=O` was tested, and the Na (Rattus norvegicus [1]) was 0.356 m equiv 6hr-1 100g-1, the Na (Rattus norvegicus [2]) was 0.492 m equiv 6hr-1 100g-1 and the Cr (Rattus norvegicus [3]) was 1.44 mg/dL. The inhibition in vivo at 1 mg/kg (Rattus norvegicus [4]) was 56%, the Ki (Adenosine A2 receptor) was 1600 nM and the Cr (Rattus norvegicus [5]) was 2.09 mg/dL. The “Na+/K+” value (Rattus norvegicus [6]) was 1.29, the T/C (Rattus norvegicus [7]) was 1.33 and the T/C (Rattus norvegicus [8]) was 2.92. The UN (Rattus norvegicus [9]) was 65.9 mg/dL, the inhibition in vivo at 0.1 mg/kg (Rattus norvegicus [10]) was 68% and the inhibition in vivo at 0.01 mg/kg (Rattus norvegicus [11]) was 37%. For the same compound, the Urine volume (Rattus norvegicus [12]) was 2.29 ml 6hr-1 100g-1, the T/C (Rattus norvegicus [13]) was 2.99 and the inhibition in vivo at 0.01 mg/kg (Rattus norvegicus [14]) was 37%. The inhibition in vivo at 1 mg/kg (Rattus norvegicus [15]) was 57%, the “Na+/K+” value (Rattus norvegicus [16]) was 1.97 and the UN (Rattus norvegicus [17]) was 44.5 mg/dL. For the same compound, the Cr (Rattus norvegicus [18]) was 2.82 mg/dL, the inhibition in vivo at 0.1 mg/kg (Rattus norvegicus [19]) was 63% and the Urine volume (Rattus norvegicus [20]) was 2.9 ml 6hr-1 100g-1. It also gave a UN (Rattus norvegicus [21]) of 81.7 mg/dL and a T/C (Rattus norvegicus [22]) of 1.33.
In the case of `CCCn1c(=O)c2nc(C3CC4CCC3C4)[nH]c2n(CCC)c1=O` (stereo in doubt; 19), the inhibition in vivo at 1 mg/kg (Rattus norvegicus [23]) is reported as 49%, the T/C (Rattus norvegicus [24]) is reported as 2.37 and the Ki (Adenosine A2 receptor) is reported as 440 nM. The Na (Rattus norvegicus [25]) was 0.337 m equiv 6hr-1 100g-1, the Ki (Adenosine receptor A1) was 3.8 nM and the Na (Rattus norvegicus [26]) was 0.427 m equiv 6hr-1 100g-1. The Urine volume (Rattus norvegicus [27]) was 2.48 ml 6hr-1 100g-1, the UN (Rattus norvegicus [28]) was 101 mg/dL and the Urine volume (Rattus norvegicus [29]) was 2.54 ml 6hr-1 100g-1. It also gave a T/C (Rattus norvegicus [8]) of 3.22, a T/C (Rattus norvegicus [13]) of 3.14 and an inhibition in vivo at 1 mg/kg (Rattus norvegicus [30]) of 48%. For the same compound, the “Na+/K+” value (Rattus norvegicus [16]) was 2.04, the T/C (Rattus norvegicus [31]) was 2.54 and the Cr (Rattus norvegicus [32]) was 2.59 mg/dL. For the same compound, the “Na+/K+” value (Rattus norvegicus [33]) was 1.84.
